“Also recorded” adds a separate entry of the source. Where two headings read alike, the source gives them in different places.
Test: Plasma pharmacokinetics of DT2216 in patients, phase 1 dose escalation
Format: in vivo, human
Settings: for ArAUC0−24 (accumulation ratio) / Vd / clearance / half-life / AUC(0-t) / AUC(0-inf) / Cmax / Tmax: plasma; for Vd / clearance / half-life / AUC(0-t) / AUC(0-inf) / Cmax / Tmax: human; for AUC(0-inf): read-out: AUC0−∞; for Cmax: read-out: Cmax; for Tmax: median (min, max)
Experimental: Dose escalation consisted of the administration of DT2216 intravenously twice weekly at several different doses outlined in protocol attached. The starting dose was 0.04 mg/kg, established based on pre-clinical toxicity studies. Safety was evaluated using CTCAE version 5.0. The initial three dose levels enrolled one patient, following which for dose level 4 and 5, a 3 + 3 design was utilized following a 100% incremental dose increase for dose levels 2 to 5 until the first dose limiting toxicity (DLT) in cycle 1 was observed. Thereafter, a modified Fibonacci sequence was used to define dose escalation increments until the maximum tolerated dose (MTD) was reached as described in protocol. If no dose-limiting toxicity (DLT) was observed during the DLT monitoring period of first 28 days, the next patient was enrolled at the next higher dose level. Dose-limiting toxicities (DLTs) during the first treatment cycle were defined as any Grade 5 toxicity; Grade 4 neutropenia lasting > 7 days; febrile neutropenia; Grade 4 thrombocytopenia or Grade 3 thrombocytopenia with clinically significant hemorrhage or lasting ≥ 7 days; and Grade ≥ 3 non-hematologic toxicities, excluding nausea, vomiting, or diarrhea lasting ≤ 3 days or transient laboratory abnormalities resolving within 72 h. Hepatotoxicity meeting Hy’s law criteria was also considered a DLT. Transient Grade 3–4 electrolyte abnormalities resolving to ≤ Grade 2 within 72 h were not considered DLTs.
Patients were allowed a maximum of two intra-patient dose escalations. Patients received DT2216 by intravenous infusion on days 1 and 4 weekly for at least 4 weeks, with each cycle consisting of a 28-day cycle for a maximum duration of 1 year until disease progression, unacceptable toxicity, or other withdrawal criteria, as listed in the protocol. The extent of disease was evaluated using imaging studies and disease-appropriate tumor markers every 8 weeks from day 1 of the first cycle. RP2D was established based on MTD as well as other relevant data, including clinical signals of activity, PK, and PD data.
Premedication prior to each infusion was at the discretion of the investigator or according to institutional guidelines. Patient assessment and follow-up procedures can be found in the schedule of assessments in this study. The clinical response was evaluated using RECIST v1.1 per protocol. Blood samples were collected for PK analysis before and after post-infusion at defined intervals, along with platelet counts. Exploratory biomarkers include (but are not limited to) the assessment of BCL-XL and VHL levels in peripheral white blood cells (WBC).
Throughout the course of the dose escalation trial, only one dose-limiting toxicity was observed, with grade 4 thrombocytopenia at a dose level of 0.32 mg/kg. […] The pharmacokinetic parameters of DT2216 were determined in patients following doses on Cycle 1 Day 1 and Cycle 1 Day 22 (Tables 4 and 5). […] AUC0-∞ values ranged from 8650 to 72,300 ng · h/mL over the dose range of 0.04 mg/kg 0.4 mg/kg. […] The volume of distribution at steady state (Vss) was small (< 100 mL/kg) and consistent across the dose groups. Following repeated dosing, accumulation of DT2216 in plasma was not observed with twice weekly dosing, with accumulation ratio values ranging from 0.74 to 1.07 on Cycle 1 Day 22 ([…]) across the dose groups.

[1] = iv, 0.04 mg/kg, Cycle 1 Day 1, 0.04 mg/kg IV, mean (CV%), N = 1
[2] = iv, 0.04 mg/kg, Cycle 1 Day 22, 0.04 mg/kg IV BIW, mean (CV%), N = 1
[3] = iv, 0.08 mg/kg, Cycle 1 Day 1, 0.08 mg/kg IV, mean (CV%), N = 1
[4] = iv, 0.08 mg/kg, Cycle 1 Day 22, 0.08 mg/kg IV BIW, mean (CV%), N = 1
[5] = iv, 0.12 mg/kg, Cycle 1 Day 1, 0.12 mg/kg IV, mean (CV%), N = 1

Structure (SMILES): Cc1ncsc1-c1ccc([C@H](C)NC(=O)[C@@H]2C[C@@H](O)CN2C(=O)[C@@H](NC(=O)CCCCCC(=O)N2CCN(CC[C@H](CSc3ccccc3)Nc3ccc(S(=O)(=O)NC(=O)c4ccc(N5CCN(CC6=C(c7ccc(Cl)cc7)CCC(C)(C)C6)CC5)cc4)cc3S(=O)(=O)C(F)(F)F)CC2)C(C)(C)C)cc1 [DT2216]
- dose proportionality of plasma exposure (AUC) (0.04 to 0.4 mg/kg IV BIW): dose proportional with no dose accumulation; also recorded: dose proportional increase in DT2216 exposure
- maximum concentration (0.4 BIW dose): 8590 ng/mL
- ArAUC0−24 (accumulation ratio) (Cycle 1 Day 22, 0.04 mg/kg IV BIW, mean (CV%), N = 1): 0.90 (N = 1)
- ArAUC0−24 (accumulation ratio) (Cycle 1 Day 22, 0.08 mg/kg IV BIW, mean (CV%), N = 1): 0.74 (N = 1)
- ArAUC0−24 (accumulation ratio) (Cycle 1 Day 22, 0.12 mg/kg IV BIW, mean (CV%), N = 1): 1.07 (N = 1)
- ArAUC0−24 (accumulation ratio) (Cycle 1 Day 22, 0.24 mg/kg IV BIW, mean (CV%), N = 6): 1.08 (11.6) (N = 6)
- ArAUC0−24 (accumulation ratio) (Cycle 1 Day 22, 0.32 mg/kg IV BIW, mean (CV%), N = 5): 1.02 (6.7) (N = 5)
- ArAUC0−24 (accumulation ratio) (Cycle 1 Day 22, 0.4 mg/kg IV BIW, mean (CV%), N = 4): 1.01 (8.7) (N = 4)
- steady state of plasma concentration (based on pre-dose and 2-hour post infusion plasma concentrations): reached by at least Cycle 1, Day 15
- Vd (intravenous, consistent across the dose groups, read-out: volume of distribution at steady state (Vss)): < 0.1 L/kg
- clearance (intravenous, over the dose range tested, read-out: clearance values): 0.0683 to 0.132 mL/min/kg
- half-life (intravenous, over the dose range tested, independent of dose, read-out: mean half-life): 7.09 to 12.8 h
- AUC(0-t) (iv, 0.04 mg/kg, Cycle 1 Day 1, 0.04 mg/kg IV, mean (CV%), N = 1, read-out: AUC0−24): 5920 ng·h/mL
- AUC(0-inf) [1]: 8650 ng·h/mL
- AUC(0-t) (iv, 0.04 mg/kg, Cycle 1 Day 1, 0.04 mg/kg IV, mean (CV%), N = 1, read-out: AUClast): 8470 ng·h/mL
- clearance (iv, 0.04 mg/kg, Cycle 1 Day 1, 0.04 mg/kg IV, mean (CV%), N = 1, read-out: CL (converted)): 0.077 mL/min/kg
- Cmax [1]: 738 ng/mL
- half-life (iv, 0.04 mg/kg, Cycle 1 Day 1, 0.04 mg/kg IV, mean (CV%), N = 1, read-out: T½ (converted)): 12.8 h
- Vd (iv, 0.04 mg/kg, Cycle 1 Day 1, 0.04 mg/kg IV, mean (CV%), N = 1, read-out: Vdss): 0.0776 L/kg
- Tmax (iv, 0.04 mg/kg, Cycle 1 Day 1, 0.04 mg/kg IV, N = 1): 0.75 h
- AUC(0-t) (iv, 0.04 mg/kg, Cycle 1 Day 22, 0.04 mg/kg IV BIW, mean (CV%), N = 1, read-out: AUC0−24): 5350 ng·h/mL
- AUC(0-inf) [2]: 6230 ng·h/mL
- AUC(0-t) (iv, 0.04 mg/kg, Cycle 1 Day 22, 0.04 mg/kg IV BIW, mean (CV%), N = 1, read-out: AUClast): 5390 ng·h/mL
- clearance (iv, 0.04 mg/kg, Cycle 1 Day 22, 0.04 mg/kg IV BIW, mean (CV%), N = 1, read-out: CL (converted)): 0.107 mL/min/kg
- Cmax [2]: 541 ng/mL
- half-life (iv, 0.04 mg/kg, Cycle 1 Day 22, 0.04 mg/kg IV BIW, mean (CV%), N = 1, read-out: T½ (converted)): 8.18 h
- Vd (iv, 0.04 mg/kg, Cycle 1 Day 22, 0.04 mg/kg IV BIW, mean (CV%), N = 1, read-out: Vdss): 0.081 L/kg
- Tmax (iv, 0.04 mg/kg, Cycle 1 Day 22, 0.04 mg/kg IV BIW, N = 1): 2.5 h
- AUC(0-t) (iv, 0.08 mg/kg, Cycle 1 Day 1, 0.08 mg/kg IV, mean (CV%), N = 1, read-out: AUC0−24): 13400 ng·h/mL
- AUC(0-inf) [3]: 19500 ng·h/mL
- AUC(0-t) (iv, 0.08 mg/kg, Cycle 1 Day 1, 0.08 mg/kg IV, mean (CV%), N = 1, read-out: AUClast): 19100 ng·h/mL
- clearance (iv, 0.08 mg/kg, Cycle 1 Day 1, 0.08 mg/kg IV, mean (CV%), N = 1, read-out: CL (converted)): 0.0683 mL/min/kg
- Cmax [3]: 1450 ng/mL
- half-life (iv, 0.08 mg/kg, Cycle 1 Day 1, 0.08 mg/kg IV, mean (CV%), N = 1, read-out: T½ (converted)): 12.5 h
- Vd (iv, 0.08 mg/kg, Cycle 1 Day 1, 0.08 mg/kg IV, mean (CV%), N = 1, read-out: Vdss): 0.07 L/kg
- Tmax (iv, 0.08 mg/kg, Cycle 1 Day 1, 0.08 mg/kg IV, N = 1): 1.5 h
- AUC(0-t) (iv, 0.08 mg/kg, Cycle 1 Day 22, 0.08 mg/kg IV BIW, mean (CV%), N = 1, read-out: AUC0−24): 9840 ng·h/mL
- AUC(0-inf) [4]: 11700 ng·h/mL
- AUC(0-t) (iv, 0.08 mg/kg, Cycle 1 Day 22, 0.08 mg/kg IV BIW, mean (CV%), N = 1, read-out: AUClast): 9910 ng·h/mL
- clearance (iv, 0.08 mg/kg, Cycle 1 Day 22, 0.08 mg/kg IV BIW, mean (CV%), N = 1, read-out: CL (converted)): 0.114 mL/min/kg
- Cmax [4]: 962 ng/mL
- half-life (iv, 0.08 mg/kg, Cycle 1 Day 22, 0.08 mg/kg IV BIW, mean (CV%), N = 1, read-out: T½ (converted)): 8.63 h
- Vd (iv, 0.08 mg/kg, Cycle 1 Day 22, 0.08 mg/kg IV BIW, mean (CV%), N = 1, read-out: Vdss): 0.091 L/kg
- Tmax (iv, 0.08 mg/kg, Cycle 1 Day 22, 0.08 mg/kg IV BIW, N = 1): 2.5 h
- AUC(0-t) (iv, 0.12 mg/kg, Cycle 1 Day 1, 0.12 mg/kg IV, mean (CV%), N = 1, read-out: AUC0−24): 12900 ng·h/mL
- AUC(0-inf) [5]: 18000 ng·h/mL
- AUC(0-t) (iv, 0.12 mg/kg, Cycle 1 Day 1, 0.12 mg/kg IV, mean (CV%), N = 1, read-out: AUClast): 17900 ng·h/mL
- clearance (iv, 0.12 mg/kg, Cycle 1 Day 1, 0.12 mg/kg IV, mean (CV%), N = 1, read-out: CL (converted)): 0.111 mL/min/kg
- Cmax [5]: 3710 ng/mL
- half-life (iv, 0.12 mg/kg, Cycle 1 Day 1, 0.12 mg/kg IV, mean (CV%), N = 1, read-out: T½ (converted)): 8.92 h
- Vd (iv, 0.12 mg/kg, Cycle 1 Day 1, 0.12 mg/kg IV, mean (CV%), N = 1, read-out: Vdss): 0.0557 L/kg
- Tmax (iv, 0.12 mg/kg, Cycle 1 Day 1, 0.12 mg/kg IV, N = 1): 0.75 h
- AUC(0-t) (iv, 0.12 mg/kg, Cycle 1 Day 22, 0.12 mg/kg IV BIW, mean (CV%), N = 1, read-out: AUC0−24): 13900 ng·h/mL
- AUC(0-inf) (iv, 0.12 mg/kg, Cycle 1 Day 22, 0.12 mg/kg IV BIW, mean (CV%), N = 1): 14500 ng·h/mL
- AUC(0-t) (iv, 0.12 mg/kg, Cycle 1 Day 22, 0.12 mg/kg IV BIW, mean (CV%), N = 1, read-out: AUClast): 13900 ng·h/mL
